The values below come from ChEMBL document CHEMBL5614399, “Design and Assessment of First-Generation Heterobifunctional PPARα/STING Modulators” (ACS Med Chem Lett, 2024).

Each structure is given as a SMILES string. Calls of active or inactive are those of the source. The calls are words filed in the database; no cut-off is given here.

Assay [1] relates to 661W. In words: Cytoprotective activity against 4HNE-induced mouse 661W cells assessed as reduction in ROS level at 1 uM preincubated for 2 hrs followed by 4-HNE addition and measured after 24 hrs in presence of A229 by CM-H2DCFDA staining based fluorescence analysis. Format: functional, cell-based. Particulars: time 26.0 hrs.
Assay [2] has as its system 661W. The experiment in a line: Cytoprotective activity against 4HNE-induced mouse 661W cells assessed as reduction in ROS level at 0.5 uM preincubated for 2 hrs followed by 4-HNE addition and measured after 24 hrs in presence of A229 by CM-H2DCFDA staining based fluorescence analysis. Format: functional, cell-based. The note with it: time 26.0 hrs.

On to `O=C(Nc1ccc(O)c(NS(=O)(=O)c2ccc(F)cc2)c1)c1ccc(-c2ccccc2)cc1`, for which the result with 661W [1] and with 661W [2] was Active.
